# Values of other authors, collected in article PMC8240349 (Journal of Traditional and Complementary Medicine, 2021).
# System: CCA
# Settings: cited from earlier work
smiles,measurement,value
CC1=CCC[C@H](C)[C@@]12CC[C@@H](C(C)(C)O)C2 [hinesol],activity (anti-CCA),weak activity
